Data taken from US9670521B2, “Amino acid derivatives” (priority 2012, dated 2017).
Like-named read-outs stand apart in the source and are kept apart here.

Target: T1, pyIRS/tRNA pair (Methanosarcina mazei, UniProt Q8PWY1)
T1 construct: expressed in transfected cells
Assay type: cell-based
Conditions: for GFP expression / incorporation in the GFP reporter (in words): GFP assay, HEK293 cells expressing pyIRS/tRNApyl and GFPY40, nnAA at 2 mM; for Positive GFP / Positive GFP Assay: HEK293 cells stably expressing pyIRS (3H7), tRNApyl + GFPY40 reporter, nnAA at 2 mM for 2-3 days; for Positive GFP: visual inspection under the microscope; for Positive GFP Assay: Formula VI analogs
Excerpt: An in vitro cell based assay was developed to assess the compatibility of the pyIRS/tRNA pair and the pyrrolysine analogs of the present invention (nnAAs) by and the efficiency of nnAAs integration into a target protein. For this, HEK293 cells stably expressing pyIRS (3H7) were transiently transfected with plasmids for the expression of tRNApyl and a reporter construct encoding GFPY40 (containing amber codon in place of tyrosine at amino acid residue number 40 (where 1 is the initiator methionine)) using standard transfection protocols. Transfected cells were incubated with nnAAs at 2 mM for 2-3 days GFP production was analyzed qualitatively by visual inspection under the microscope. The GFP fluorescence was quantified by flow cytometry using an Accuri flow cytometer and the geometric mean of the fluorescent cells determined.
This cell based assay was used to determine whether the different nnAAs were suitable substrates for the pyIRS and allowed its translation into a target protein. Cells expressing the PyIRS/tRNApyl pair and containing a vector encoding the GFPY40 reporter gene were incubated in the presence of the nnAAs. nnAAs that are readily utilized by the PyIRS/tRNApyl pair support the translation of the nnAA into the amber site of GFP and allow read-through of the gene producing full length GFP (fluorescent protein). The fluorescence intensity of the cells depends on the efficiency of nnAA incorporation. Thus, nnAAs that are poorly utilized produce weakly fluorescent or non-fluorescing cells. […] Furthermore, the relative expression levels in each sample was compared to those generated by substrates known to be efficiently utilized by pyIRS.

T1 sequence (Q8PWY1 whole entry): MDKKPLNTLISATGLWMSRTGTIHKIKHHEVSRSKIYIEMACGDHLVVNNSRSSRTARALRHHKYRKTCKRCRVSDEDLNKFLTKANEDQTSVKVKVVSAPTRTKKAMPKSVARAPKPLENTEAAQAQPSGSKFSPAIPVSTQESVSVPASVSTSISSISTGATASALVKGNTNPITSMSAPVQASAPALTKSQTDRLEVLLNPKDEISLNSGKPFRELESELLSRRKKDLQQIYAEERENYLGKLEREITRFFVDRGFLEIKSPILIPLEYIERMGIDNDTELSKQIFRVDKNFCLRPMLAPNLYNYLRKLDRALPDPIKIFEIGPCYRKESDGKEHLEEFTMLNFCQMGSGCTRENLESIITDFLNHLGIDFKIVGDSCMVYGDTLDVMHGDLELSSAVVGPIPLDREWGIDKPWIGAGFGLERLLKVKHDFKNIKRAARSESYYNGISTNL

## [N-]=[N+]=NCCOC(=O)NCCCC[C@H](N)C(=O)O [Formula V.1, (2S)-2-amino-6-{[(2-azidoethoxy)carbonyl]amino}hexanoic acid]
  GFP expression / incorporation in the GFP reporter (in words): high levels of GFP expression
  Positive GFP: Yes

## C#CCOC(=O)NCCCC[C@H](N)C(=O)O [Formula V.2, (2S)-2-amino-6-{[(prop-2-yn-1-yloxy)carbonyl]amino}hexanoic acid]
  GFP expression / incorporation in the GFP reporter (in words): high levels of GFP expression
  Positive GFP: Yes

## C=CCOC(=O)NCCCC[C@H](N)C(=O)O [Formula V.3, (2S)-2-amino-6-{[(prop-2-en-1-yloxy)carbonyl]amino}hexanoic acid]
  GFP expression / incorporation in the GFP reporter (in words): high levels of GFP expression
  Positive GFP: Yes

## [N-]=[N+]=NCCNC(=O)OCCCC[C@H](N)C(=O)O [Formula VI.1, (2S)-2-amino-6-{[(2-azidoethyl)carbamoyl]oxy}hexanoic acid]
  GFP expression / incorporation in the GFP reporter (in words): high levels of GFP expression
  Positive GFP Assay: Yes
Listed as VI.1
  GFP expression / incorporation in the GFP reporter (in words): yield green cells

## C=CCNC(=O)OCCCC[C@H](N)C(=O)O [Formula VI.3, (2S)-2-amino-6-{[(prop-2-en-1-yl)carbamoyl]oxy}hexanoic acid]
  GFP expression / incorporation in the GFP reporter (in words): yield green cells
  Positive GFP Assay: Yes
